In US8741843B2, “Compositions and methods for inducing angiogenesis” (priority 2006, dated 2014):
Entries after “also recorded” stand apart in the source; their conditions may differ.

Experiments:
[1] = tested on: endothelial cells (HUVEC); assay: Binding of biotinylated ADOPep to endothelial cells by FACS; parameters: species or system human
Procedure: FIG. 3 is a FACS analysis depicting the binding (in percentages) of biotinylated ADOPep1 (ADOPep1^Biot), an ADAM15 derived peptide (SEQ ID NO:2), to endothelial cells (EC) under normoxia. Biotinylated ADOPep1 at 0.05, 0.5 and 5 microgram/ml (μg/ml) were added to endothelial cells.
FIG. 4 is a FACS analysis depicting the binding (in total counts) of Biotinylated ADOPep1 to endothelial cells under normoxia and hypoxia conditions. […] X axis—Intensity of binding.
Human umbilical endothelial cells (HUVEC) were harvested by trypsin and 100,000 cells per sample were suspended in PBS+5% FCS+0.1% Na azide. Endothelial cells were either exposed for 5 hours to hypoxia or remained under normoxia conditions. Cells were stained for 2 hours on ice in dark with 0.05, 0.5, 5 μg/100,000 cells biotinylated ADOPeps. The cells were then washed twice with PBS, following which the cells were stained for 30 minutes with FITC-labeled Streptavidin (Jackson ImmunoResearch Laboratories, PA, USA). After washing, samples were analyzed using a fluorescence activated cell sorter (FACScan Beckton Dickinson, Calif., USA).

[2] = tested on: mouse ischemic hind limb; assay: Histological assessment of angiogenesis in ischemic hind limb (von Willebrand Factor VIII staining); type: in vivo
Procedure: FIG. 8 is a graph depicting histological assessment of angiogenesis in the ischemic hind limb treated with ADOPep1. Mice were subjected to hind limb ligation and ADOPep administration as described in FIG. 7 and at the noted days (0, 7, 14 and 21 days) post hind limb ligation the mice were sacrificed and legs were embedded in paraffin. Sections were stained with anti von Willebrand factor and the number of Factor VIII positive vessels was determined using the Image Pro Plus software. Shown are the average blood vessel densities (of 10 individual microscopical fields per sample) expressed as number of capillaries per millimeter squared in histological sections of mouse hind limb ischemia treated with ADOPep1.
FIGS. 9a-b are microscopical images of histological sections subjected to von Willebrand Factor immuno-staining of mouse hind limb ischemia 21 days following injection of ADOPep1 (FIG. 9a) or PBS (FIG. 9b). […]
Limbs from mice treated with ADOPep 1, 3 or control mice injected with PBS were sacrificed at 7, 14 and 21 days post operation. […] Vessel densities were expressed as capillaries per millimeter squared. To obtain the average vessel number per cross-section area, a minimum of ten individual fields were sampled, and Image Pro-Plus (MediaCybernetics, Silver spring, MD, USA) was used to measure the counted area. The number of Factor VIII positive vessels was counted.

## HWRRAHLLPRLP [ADOPep1, ADAM15 derived peptide, amino acids 286-297 of the metalloprotease domain]
[1]; 5 micrograms per 100,000 cells
  binding to endothelial cells under hypoxia versus normoxia: increase in binding; also recorded: increased under hypoxia
[1]; hypoxia 5 hours, 5 μg/ml
  percent binding of biotinylated ADOPep1 to endothelial cells: about 85%
[1]; normoxia, maximal at 5 μg/ml
  percent binding of biotinylated ADOPep1 to endothelial cells: about 62%
[2]; 0.1 μg per mouse, days 7, 14, 21, vs PBS
  blood vessel density (number of blood vessels per area): significant increase (p<0.05) in the number of blood vessels; also recorded: significant increase in the blood vessel density
[2]; 21 days following injection, vs PBS
  von Willebrand Factor staining of small vessels: higher von Willebrand Factor Positive stained small vessels; also recorded: significantly higher von Willebrand Factor staining of small vessels
